The test relates to HT-29 cells. Kind of test: HT-29 necroptosis cell viability assay (TNF-α/SMAC mimetic/zVAD-FMK, CellTiter-Glo). The conditions noted are these: Homo sapiens, HT-29, HT-29 cells, necroptosis induced by TNF-α/SMAC mimetic/zVAD-FMK, CellTiter-Glo; read-out: Activity (IC50 class). The format is cell-based. In short, it runs like this:
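HT-29 cells (~5,000/well, overnight) in FBS-free McCoy's 5A with TNF-α 10 ng/ml, SMAC mimetic 6 μM and zVAD-FMK 10 μM plus 10-point 1:3 compound titration, 20 h at 37°C. ATP measured by CellTiter-Glo luminescence; IC50 as geometric mean of duplicates.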
For orientation: Cellular ATP, detected with luciferase, serves as a proxy for viable cell number.

This is an account of results in patent US20250179061A1 (SIRONAX LTD., priority 2022, published 2025).

Each structure is given as a SMILES string.

By IC50 is commonly meant the concentration that gives 50% inhibition.

With `O=c1n(Cc2c(F)cccc2F)cnn1-c1ccc(Oc2cc(N3CC4(C3)CN(C3CC3)C4)ncc2F)c(F)c1` [Example 680, 2-(4-((2-(6-cyclopropyl-2,6-diazaspiro[3.3]heptan-2-yl)-5-fluoropyridin-4-yl)oxy)-3-fluorophenyl)-4-(2,6-difluorobenzyl)-2,4-dihydro-3H-1,2,4-triazol-3-one], the IC50 is less than 100 nM.
For the compound `O=c1n(-c2ccc(N3CCOc4ccccc43)cc2)nc(Cl)n1Cc1ccccc1` [Example 681, 4-benzyl-5-chloro-2-(4-(2,3-dihydro-4H-benzo[b][1,4]oxazin-4-yl)phenyl)-2,4-dihydro-3H-1,2,4-triazol-3-one], the half-maximal inhibitory concentration (IC50) fell in the range of 100 to 1000 nM.
For the compound `N#CC1CC(n2cccc(Cc3ccc(-n4ncn(Cc5c(F)cccc5F)c4=O)cc3)c2=O)C1` (centres unmarked) [Example 682, 3-(3-(4-(4-(2,6-difluorobenzyl)-5-oxo-4,5-dihydro-1H-1,2,4-triazol-1-yl)benzyl)-2-oxopyridin-1(2H)-yl)cyclobutane-1-carbonitrile], the IC50 lay within 100 to 1000 nM.
Regarding `COc1ncccc1Cc1ccc(-n2ncn(Cc3c(F)cccc3F)c2=O)cc1` [Example 683, 4-(2,6-difluorobenzyl)-2-(4-((2-methoxypyridin-3-yl)methyl)phenyl)-2,4-dihydro-3H-1,2,4-triazol-3-one], the IC50 is less than 100 nM.
The figure for `N#CC1CC(Oc2ncccc2Cc2ccc(-n3ncn(Cc4c(F)cccc4F)c3=O)cc2)C1` (centres unmarked) [Example 684, 3-((3-(4-(4-(2,6-difluorobenzyl)-5-oxo-4,5-dihydro-1H-1,2,4-triazol-1-yl)benzyl)pyridin-2-yl)oxy)cyclobutane-1-carbonitrile] is 100 to 1000 nM.
